In EP4752152A1, “STEROID COMPOUND, AND PREPARATION METHOD THEREFOR AND USE THEREOF” (Cholesgen (Shanghai) Co.Ltd., priority 2023, dated 2025):
pIC50: −log10 of the molar value. Where two headings read alike, the source gives them in different places.

Columns and labels:
SREBP pathway = test: SREBP luciferase reporter gene system (SRE-luciferase assay); format: cell-based, human; conditions: Huh-7/SRE-luc cells, sterol-deficient medium, 0.01-10 µM
How it was run: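 Readout was SRE-driven luciferase normalised to GFP fluorescence in lysates of stably transfected Huh-7/SRE-luc hepatoma cells. Compounds (0.01, 0.03, 0.1, 0.3, 1.0, 3.0, 10 µM; DMSO control) were applied for 16 h in sterol-depleted medium with 2 µM lovastatin and 10 µM mevalonate; IC50 from variable-slope fit.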

[1] = system: Fatty Acid Synthase (FASN) gene; test: Inhibition of FASN gene expression (qPCR) in Huh-7 cells; format: cell-based, human; conditions: read-out: FASN IC50
Protocol: Huh-7 cells (purchased from ATCC) were cultured in DMEM medium (containing 10% fetal bovine serum LONSERA S711-001S) at 37°C in a 5% CO2 incubator. After 24 hours, the original medium was aspirated and replaced with DMEM starvation medium (containing 5% lipoprotein deficient serum (LPDS), 2 µM lovastatin, and 10 µM mevalonate). The control group was treated with dimethyl sulfoxide (DMSO), while the compound treatment groups were treated with different concentrations of compounds. The highest concentration of the compound was 3000 nM, with 3-fold dilutions, totaling 5 concentrations. The cells were cultured for 16 hours. Cell lysis was performed, followed by reverse transcription from cells to cDNA, and qPCR was performed to detect the expression of the SREBP target gene Fatty Acid Synthase (FASN) gene (FASN gene forward primer sequence: 5'-[…]-3', reverse primer sequence: 5'-[…]-3'). The IC50 was calculated. The test data for each test compound were analyzed using Prism software (with the DMSO-treated group as the reference to calculate the compound inhibition rate, fitted using the Prism log(inhibitor) vs. responseVariable slope (four-parameter) model, calculation formula: Y = Bottom + (Top - Bottom)/(1 + 10^((LogIC50 - X) × HillSlope))), to obtain the IC50 parameters of the compounds. Table 4: Inhibition results of FASN gene expression by compounds from some examples

[2] = Homo sapiens, Huh-7, 16 h, Huh-7 cells, starvation medium, 16 hours, qPCR, class symbols

SMILES	IC50 (SREBP pathway; 16 hours) [µM]	pIC50 ([1]; Homo sapiens, Huh-7, 16 h)	pIC50 [1, 2]	IC50 (SREBP pathway; Homo sapiens, Huh-7, 16 h) [µM]	pIC50 ([1]; Huh-7 cells, starvation medium, 16 hours, qPCR, class symbols)
COc1cccc(F)c1C(CCC[C@@H](C)[C@H]1CC[C@H]2[C@H]3[C@H](CC[C@]12C)[C@@]1(C)CC[C@H](O)[C@H](O)[C@@H]1CC3(F)F)=NO (single isomer, unassigned) [Compound 210, [(1E,5R)-5-[(1R,3aS,3bS,5aR,6R,7S,9aR,9bS,11aR)-4,4-difluoro-6,7-dihydroxy-9a,11a-dimethylhexadecahydro-1H-cyclopenta[1,2-a]phenanthren-1-yl]-1-(2-fluoro-6-methoxyphenyl)hexylidene]hydroxylamine or [(1Z,5R)-5-[(1R,3aS,3bS,5aR,6R,7S,9aS,9bS,11aR)-4,4-difluoro-6,7-dihydroxy-9a,9b,11a-trimethylhexadecahydro-1H-cyclopenta[1,2-a]phenanthren-1-yl]-1-(2-fluoro-6-methoxyphenyl)hexylidene]hydroxylamine]	0.017	> 6.70			
C[C@H](CCCC(O)c1ccc(F)nc1F)[C@H]1CC[C@H]2[C@H]3[C@H](CC[C@]12C)[C@@]1(C)CC[C@H](O)[C@H](O)[C@@H]1CC3(F)F (single isomer, unassigned) [Compound 227, (1R,3aS,3bS,5aR,6R,7S,9aR,9bS,11aR)-1-[(2R,6R)-6-(2,6-difluoropyridin-3-yl)-6-hydroxyhexan-2-yl]-4,4-difluoro-9a,11a-dimethylhexadecahydro-1H-cyclopenta[1,2-a]phenanthrene-6,7-diol or (1R,3aS,3bS,5aR,6R,7S,9aR,9bS,11aR)-1-[(2R,6S)-6-(2,6-difluoropyridin-3-yl)-6-hydroxyhexan-2-yl]-4,4-difluoro-9a,11a-dimethylhexadecahydro-1H-cyclopenta[1,2-a]phenanthrene-6,7-diol]	0.014		6.30 to 6.70		
COc1ccnc(F)c1[C@H](O)CCC[C@@H](C)[C@H]1CC[C@H]2[C@H]3[C@H](CC[C@]12C)[C@@]1(C)CC[C@H](O)[C@H](O)[C@@H]1CC3(F)F (single isomer, unassigned) [Compound 230]			> 6.70	0.062	
C[C@H](CCC[C@@H](O)c1c(F)ccnc1F)[C@H]1CC[C@H]2[C@H]3[C@H](CC[C@]12C)[C@@]1(C)CC[C@H](O)[C@H](O)[C@@H]1CC3(F)F (single isomer, unassigned) [Compound 232]			6.30 to 6.70	0.151	
C[C@H](CCC[C@H](O)c1c(F)ccnc1F)[C@H]1CC[C@H]2[C@H]3[C@H](CC[C@]12C)[C@@]1(C)CC[C@H](O)[C@H](O)[C@@H]1CC3(F)F (single isomer, unassigned) [Compound 233]			6.30 to 6.70	0.106	
COc1ccc(C(O)CCC[C@@H](C)[C@H]2CC[C@H]3[C@H]4[C@H](CC[C@]23C)[C@@]2(C)CC[C@H](O)[C@H](O)[C@@H]2CC4(F)F)c(F)n1 (single isomer, unassigned) [Compound 241, (1R,3aS,3bS,5aR,6R,7S,9aR,9bS,11aR)-4,4-difluoro-1-[(2R,6R)-6-(2-fluoro-6-methoxypyridin-3-yl)-6-hydroxyhexan-2-yl]-9a,11a-dimethylhexadecahydro-1H-cyclopenta[1,2-a]phenanthrene-6,7-diol or (1R,3aS,3bS,5aR,6R,7S,9aR,9bS,11aR)-4,4-difluoro-1-[(2R,6S)-6-(2-fluoro-6-methoxypyridin-3-yl)-6-hydroxyhexan-2-yl]-9a,11a-dimethylhexadecahydro-1H-cyclopenta[1,2-a]phenanthrene-6,7-diol]			> 6.70	0.14	
C[C@H](CCCC(O)c1cccc2cnn(C)c12)[C@H]1CC[C@H]2[C@H]3[C@H](CC[C@]12C)[C@@]1(C)CC[C@H](O)[C@H](O)[C@@H]1CC3(F)F (single isomer, unassigned) [Compound 244, (1R,3aS,3bS,5aR,6R,7S,9aR,9bS,11aR)-4,4-difluoro-1-[(2R,6R)-6-hydroxy-6-(1-methylindazol-7-yl)hexan-2-yl]-9a,11a-dimethylhexadecahydro-1H-cyclopenta[1,2-a]phenanthrene-6,7-diol or (1R,3aS,3bS,5aR,6R,7S,9aR,9bS,11aR)-4,4-difluoro-1-[(2R,6S)-6-hydroxy-6-(1-methylindazol-7-yl)hexan-2-yl]-9a,11a-dimethylhexadecahydro-1H-cyclopenta[1,2-a]phenanthrene-6,7-diol]	0.06		> 6.70		
COc1nc(F)cc(F)c1[C@@H](O)CCC[C@@H](C)[C@H]1CC[C@H]2[C@H]3[C@H](CC[C@]12C)[C@@]1(C)CC[C@H](O)[C@H](O)[C@@H]1CC3(F)F (single isomer, unassigned) [Compound 255]			6.30 to 6.70	0.107	
COc1nc(F)ccc1[C@H](O)CCC[C@@H](C)[C@H]1CC[C@H]2[C@H]3[C@H](CC[C@]12C)[C@@]1(C)CC[C@H](O)C(=O)[C@@H]1CC3(F)F (single isomer, unassigned) [Compound 260]			> 6.70	0.03	
COc1cc(F)nc(F)c1[C@H](O)CCC[C@@H](C)[C@H]1CC[C@H]2[C@H]3[C@H](CC[C@]12C)[C@@]1(C)CC[C@H](O)[C@H](O)[C@@H]1CC3(F)F (single isomer, unassigned) [Compound 262]			> 6.70	0.017	
C[C@H](CCCC(O)c1ccc2c(n1)OC(F)(F)O2)[C@H]1CC[C@H]2[C@H]3[C@H](CC[C@]12C)[C@@]1(C)CC[C@H](O)[C@H](O)[C@@H]1CC3(F)F (single isomer, unassigned) [Compound 266]	0.099				> 6.70
CCOc1nc(F)ccc1[C@@H](O)CCC[C@@H](C)[C@H]1CC[C@H]2[C@H]3[C@H](CC[C@]12C)[C@@]1(C)CC[C@H](O)[C@H](O)[C@@H]1CC3(F)F (single isomer, unassigned) [Compound 289]			> 6.70	0.342	
C[C@H](CCCC(O)c1cccc2ncn(C)c12)[C@H]1CC[C@H]2[C@H]3[C@H](CC[C@]12C)[C@@]1(C)CC[C@H](O)[C@H](O)[C@@H]1CC3(F)F (single isomer, unassigned) [Compound 299, (1R,3aS,3bS,5aR,6R,7S,9aR,9bS,11aR)-4,4-difluoro-1-[(2R,6R)-6-hydroxy-6-(3-methylbenzo[d]imidazol-4-yl)hexan-2-yl]-9a,11a-dimethylhexadecahydro-1H-cyclopenta[1,2-a]phenanthrene-6,7-diol or (1R,3aS,3bS,5aR,6R,7S,9aR,9bS,11aR)-4,4-difluoro-1-[(2R,6S)-6-hydroxy-6-(3-methylbenzo[d]imidazol-4-yl)hexan-2-yl]-9a,11a-dimethylhexadecahydro-1H-cyclopenta[1,2-a]phenanthrene-6,7-diol]			> 6.70	0.033	
COc1cccc(F)c1C(O)CCC[C@@H](C)[C@H]1CC[C@H]2[C@H]3[C@H](CC[C@]12C)[C@@]1(C)CC[C@H](O)C[C@@H]1CC3(F)F (single isomer, unassigned) [Compound 314]			6.05 to 6.30	0.14	
COc1cccc(F)c1C(O)CC[C@@H](C)[C@H]1CC[C@H]2[C@H]3[C@H](CC[C@]12C)[C@@]1(C)CC[C@H](O)[C@H](O)[C@@H]1CC3(F)F (single isomer, unassigned) [Compound 336]			> 6.70	0.31	
